From US6733985B1, “Preparation of stable liquid and dried synthetic prothrombin time reagents” (International Technidyne Corporation, priority 1999, dated 2004)
Where a SMILES comes first, the peptide text is derived from it.

Legend:
[1] = tested on: Level I (normal control) and Level III (abnormal control) control plasma; test: traditional prothrombin time test method using a Fibrometer; conditions: amino acid stabilizer compound formulated into PT reagent (summary of Examples 1 to 13)
Method: The concentration of the dissolved phospholipids was 12.76 mM. […] Additional bovine serum albumin was added to a concentration of 4.8 mg/ml. […] The dialyzed lipidated tissue factor, was then drained from the dialysis bag. […] The formulated material was frozen at −70° C., and then thawed. The thawed formulated material was incubated at 25 and 37° C. for 4 weeks, The reagent was taken out from the incubation at weekly intervals and subjected to coagulation assay by traditional prothrombin time test method using a Fibrometer. The control plasma samples used for the assay were Level I (normal control) and Level III (abnormal control) of Ortho Diagnostics Corporation. […] The Level III abnormal control plasma contains a reduced amount of coagulation factors representing the plasma of patients.

[2] = tested on: Control Level I or Level III plasma samples; test: clotting assay of air-dried reagent in cuvets for Protime instrument; assay type: biochemical; conditions: Example 11 lipidated tissue factor in 14 mM Hepes, 4% sorbitol, 1% β-alanine, with 1% polymeric carbohydrate or none
Method: The formulated material was air-dried at 20° C. and 5% relative humidity in cuvets for Protime instrument (a product of International Technidyne Corporation, Edison, N.J.). The produced cuvets with reagent were incubated at 25, 37 and 45° C. for stability studies. At given time intervals, the cuvets were taken out of the incubators and assayed for their clotting activities. Freshly withdrawn blood, Control Level I or Level III plasma samples were added to the cuvets with the dried reagent for assay. Calcium chloride, 8.3 mM, was added to the control plasmas and loaded on the cuvet immediately for assay. In this assay system, reconstitution of the dried reagent is done with plasma or blood, without using water, which is different from Fibrometer assay system. Thence, the kinetics involved in these two systems are different, as well as the clotting times. Whole blood contains a considerable amount of red blood cells and other blood components and its clotting activity is different from that of plasma. For comparison, the clotting time with freshly withdrawn whole blood at day zero was 22.8 seconds.
As shown in the results, γ-Cyclodextrin is a useful homogeneous polymeric carbohydrate to adjust the sensitivity of the synthetic PT reagent.

[3] = tested on: Level III and Level I plasma; conditions: prior art comparison; cited from earlier work

Molecule	Level III/I ratio test results [1]	other results
NCC(=O)NCC(=O)O [Glycylglycine] (H-Gly-Gly-OH)	Unsatis-	
NCCCCCC(=O)O [ε-aminocaproic acid]	Unsatis-	
OC[C@H]1O[C@@H]2O[C@H]3[C@H](O)[C@@H](O)[C@@H](O[C@H]4[C@H](O)[C@@H](O)[C@@H](O[C@H]5[C@H](O)[C@@H](O)[C@@H](O[C@H]6[C@H](O)[C@@H](O)[C@@H](O[C@H]7[C@H](O)[C@@H](O)[C@@H](O[C@H]8[C@H](O)[C@@H](O)[C@@H](O[C@H]9[C@H](O)[C@@H](O)[C@@H](O[C@H]1[C@H](O)[C@H]2O)O[C@@H]9CO)O[C@@H]8CO)O[C@@H]7CO)O[C@@H]6CO)O[C@@H]5CO)O[C@@H]4CO)O[C@@H]3CO [γ-Cyclodextrin]		Clotting Times, Level I [2]: 17.6 s; Clotting Times, Level III [2]: 81.8 s; III/I Ratio [2]: 4.7
N=C(N)NCCC[C@H](N)C(=O)O [Arginine]	Unsatis-	
NCCCCC(=O)O [Delta aminovaleric acid]	Satisfac-	
NCCC(=O)O [Beta alanine]	Satisfac-	
NCCCC(=O)O [Gamma aminobutyric acid]	Satisfac-	
N[C@@H](CC(=O)O)C(=O)O [Aspartic acid]	Unsatis-	
recombinant tissue factor: recombinant tissue factor based PT reagent, named in b17 as comparison for sensitivity (protein, UniProt P13726 33-295, looked up, PT reagent, recombinant tissue factor based PT reagent, named in b17 as comparison for sensitivity) Tissue factor: SGTTNTVAAYNLTWKSTNFKTILEWEPKPVNQVYTVQISTKSGDWKSKCFYTTDTECDLTDEIVKDVKQTYLARVFSYPAGNVESTGSAGEPLYENSPEFTPYLETNLGQPTIQSFEQVGTKVNVTVEDERTLVRRNNTFLSLRDVFGKDLIYTLYYWKSSSSGKKTAKTNTNEFLIDVDKGENYCFSVQAVIPSRTVNRKSTDSPVECMGQEKGEFREIFYIIGAVVFVVIILVIILAISLHKCRKAGVGQSWKENSPLNVS		Level III/I sensitivity [3]: 4.0
